Assays:
free HIV-1-RF = assay: Cell-Free HIV Inactivation assay; type: cell-based; settings: for Infec. Red. (log), Cell-Free HIV Inactivation: two minute incubation; for virucidal activity against cell-free HIV: sufficient if viral titer reduction of at least two log10 units
Method: (§1) The compounds used in the Sander-Cramer assays (neat liquids and coprecipitates) were evaluated for their anti-HIV activity using the Cell-Free and Cell-Associated Inactivation Assays (see Table #3). Both assays employ solutions of active compound at varying concentrations in order to detect the optimal concentration to reduce the infectivity of a predetermined HIV viral load in the form of free HIV-1-RF or RF infected H9 cells. A solution of active compound is determined to have sufficient anti-viral activity if, when tested, a viral titer reduction of at least two log10 units occurs. N-9 and IN-9, in their neat liquid forms, were both found to be virucidal against cell-free and cell-associate HIV. […] The coprecipitates of N-9 (n=1-17) and IN-9 (n=1-17) were also virucidal in both assays.

[1] = Solubility and pH of test solutions in dH2O (Table 2); settings: in dH2O at initial concentration of the Sander-Cramer assay
RF infected H9 cells = assay: Cell-Associated HIV Inactivation assay; type: cell-based, HIV-1; settings: for Infec. Red. (log), Cell-Associated HIV Inactivation: two minute incubation; for virucidal activity against cell-associated HIV: sufficient if viral titer reduction of at least two log10 units
Method: as §1

human spermatozoa = assay: Sander-Cramer assay, spermicidal activity; type: cell-based; settings: for Highest Spermicidal Dilution, median / M.E.C. (minimum effective concentration): solvent dH2O; for Highest Spermicidal Dilution, median: N-9 equimolar 24, kill all spermatozoa within twenty seconds; for M.E.C. (minimum effective concentration): complete spermicidal activity within twenty seconds
Method: N-9 and its iodinated derivatives were assessed in vitro for their ability to kill spermatozoa and HIV virions. The Sander-Cramer assay was performed in order to evaluate the spermicidal activity of the surfactants and their coprecipitates with PVP. This assay determines the minimum lethal dose, reported as a concentration, of spermicide needed to kill all spermatozoa within twenty seconds. The following oligomers were incorporated into coprecipitates with PVP for the in vitro assessment: IN-9 (n=1-17), IN-9 (n=8) and IN-9 (n=13). The neat liquids of N-9 and IN-9 were also assessed for their spermicidal activity. The quantity of active compound in each coprecipitate was determined by a normal phase HPLC analysis and presented as a weight by weight (w/w) percentage. The amount of active compound in each coprecipitate was adjusted by using the w/w percentages so that the assays were conducted using equimolar amounts of active compounds.

[2] = Partition coefficient in n-octanol/water (log P) with radiolabeled species; type: physicochemical
Text: Radiolabeled species ([^14C]nonoxynol-9, [^125I]iodinated nonoxynol-9) were used to obtain precise measurements of the log P values. Iodinated nonoxynol-9 was conceptualized to be more lipophilic based upon the work by chemists such as Hammett and Hansch. Hammett determined that the halogens (F, Cl, Br, I), when attached covalently to an aromatic ring, withdrew a portion of the electron density out of the ring. The decrease in electron density causes the ring to be less susceptible to induced polarization by solvent molecules, therefore increasing its lipophilic character. The hydrophobic parameter π, developed by Hansch, reflects a substituent's ability to impart lipophilic character on a molecule (π=log Psubstituted molecule−log […]). Hansch found experimentally that the halogens created a positive π value in most molecular systems which correlated with an increase in the lipophilicity of the compound. […] Additionally, the lengthening of the ethylene oxide chain allows for reduced irritation of the vaginal epithelial lining by reducing the formation of micelles. […] Iodide was chosen as the halogen to substitute nonoxynol-9 due to its relatively large σ and π values it produces when employed as a substituent. With an increase in the hydrophobic character, iodinated nonoxynol-9 should insert into sperm membranes more readily leading to an increase in spermicidal activity. In addition, the molecular weight and size of iodinated nonoxynol-9 is greater than that of nonoxynol-9 which leads to the possibility of the molecule being less bioavailable from vaginally placed dosage forms.

[3] = background; cited from earlier work
HIV-1 = settings: background; cited from earlier work
[4] = as determined by 125IN-9, mean ± spread
[5] = as determined by [14C]N-9, mean ± spread

Mono-iodinated nonoxynol-9 [IN-9 (1-17)]
Infec. Red. (log), Cell-Free HIV Inactivation (free HIV-1-RF; Conc. 0.0032 %): 0.3 log
Infec. Red. (log), Cell-Free HIV Inactivation (free HIV-1-RF; Conc. 0.01 %): 2.3 log
Infec. Red. (log), Cell-Free HIV Inactivation (free HIV-1-RF; Conc. 0.032 %): 3.3 log
Infec. Red. (log), Cell-Free HIV Inactivation (free HIV-1-RF; Conc. 0.1 %): >4.5 log
effectiveness in killing HIV compared with N-9 (n=1-17) (free HIV-1-RF; statement on Table 3, both assays): at least as effective in killing HIV as N-9 (n=1-17)
virucidal activity against cell-free HIV (free HIV-1-RF): virucidal
Solubility [1]: OK hazy soln.
effectiveness against cell-associated HIV compared with N-9 (RF infected H9 cells): slightly more effective than N-9
Infec. Red. (log), Cell-Associated HIV Inactivation (RF infected H9 cells; Conc. 0.0032 %): 1.0 log
Infec. Red. (log), Cell-Associated HIV Inactivation (RF infected H9 cells; Conc. 0.01 %): 1.8 log
Infec. Red. (log), Cell-Associated HIV Inactivation (RF infected H9 cells; Conc. 0.032 %): 2.3 log
Infec. Red. (log), Cell-Associated HIV Inactivation (RF infected H9 cells; Conc. 0.1 %): >5.0 log
virucidal activity against cell-associated HIV (RF infected H9 cells): virucidal
MEC times less than that of neat N-9 (n=1-17) (human spermatozoa; neat liquids): over 30 times
Highest Spermicidal Dilution, median (human spermatozoa): 4096.0
M.E.C. (minimum effective concentration) (human spermatozoa): 6.0 µg/mL

Mono-iodinated Nonoxynol-9 [IN-9 (n=8)]
log P [2, 4]: 2.2 ± 0.1

Mono-iodinated Nonoxynol-9 [IN-9 (n=13)]
log P [2, 4]: 1.8 ± 0.1

Nonoxynol-9 [N-9 (n=11), reference compound]
log P [2, 5]: 1.3 ± 0.07

Nonoxynol-9 [N-9 (n=4), reference compound]
log P [2, 5]: 1.6 ± 0.05

Mono-iodinated Nonoxynol-9 [IN-9 (n=11)]
log P [2, 4]: 2.2 ± 0.1

CCCCCCCCCc1ccc(OCCOCCOCCOCCOCCOCCOCCOCCOCCO)cc1 [N-9 (1-17), nonoxynol-9]
Infec. Red. (log), Cell-Free HIV Inactivation (free HIV-1-RF; Conc. 0.0032 %): 0.3 log
Infec. Red. (log), Cell-Free HIV Inactivation (free HIV-1-RF; Conc. 0.01 %): 2.3 log
Infec. Red. (log), Cell-Free HIV Inactivation (free HIV-1-RF; Conc. 0.032 %): >4.5 log
Infec. Red. (log), Cell-Free HIV Inactivation (free HIV-1-RF; Conc. 0.1 %): >3.5 log
virucidal activity against cell-free HIV (free HIV-1-RF): virucidal
vaginal irritation [3]: increase with increased dose
inactivation of HIV-1 in vitro (HIV-1): inactivates HIV-1 completely
Solubility [1]: OK clear soln.
Infec. Red. (log), Cell-Associated HIV Inactivation (RF infected H9 cells; Conc. 0.0032 %): 0.8 log
Infec. Red. (log), Cell-Associated HIV Inactivation (RF infected H9 cells; Conc. 0.01 %): 0.8 log
Infec. Red. (log), Cell-Associated HIV Inactivation (RF infected H9 cells; Conc. 0.032 %): 2.5 log
Infec. Red. (log), Cell-Associated HIV Inactivation (RF infected H9 cells; Conc. 0.1 %): 3.2 log
virucidal activity against cell-associated HIV (RF infected H9 cells): virucidal
Highest Spermicidal Dilution, median (human spermatozoa): 128.0
M.E.C. (minimum effective concentration) (human spermatozoa): 188.0 µg/mL

Mono-iodinated Nonoxynol-9 [IN-9 (n=4)]
log P [2, 4]: 2.4 ± 0.2

Nonoxynol-9 [N-9 (n=8), reference compound]
log P [2, 5]: 1.4 ± 0.01
